The values that follow come from patent US11254696B2, “Dianilinopyrimidine compound for inhibiting kinase activity” (Shenzhen Targetrx, Inc., priority 2017, dated 2022).

Data set [1] deals with ALK F1174C/V. The following applies: Crizotinib-resistant mutation; cited from earlier work.
The target in data set [2] is ALK G1202R (Homo sapiens, UniProt Q9UM73, G1202R). Conditions: Crizotinib-resistant mutation; cited from earlier work.
For data set [3], the target named is ALK [WT] (Homo sapiens, UniProt Q9UM73). Description: Kinase inhibition assay, ALK [WT]. It counts as biochemical.
For data set [4], the system named is BaF3 [EML4-ALK]. Description: Cytotoxicity test (CellTiter-Glo), BaF3 [EML4-ALK]. It counts as cell-based. The following applies: Ba/F3 cells. The gist of the method: (§1)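 Anti-proliferative activity measured in Ba/F3 parental (grown with 10 ng/ml IL-3), Ba/F3 EML4-ALK and Ba/F3 EML4-ALK L1196M cells (grown without IL-3). Cells were seeded overnight, then treated with 10 concentrations (top 20 μM, 3-fold dilutions, duplicate) for 72 h at 37 °C. Viability was read by CellTiter-Glo luminescence and IC50 derived from dose-effect curves.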
For orientation: In ATP-based viability assays light output follows the ATP content of the culture.

The target in data set [5] is T1, BaF3 [EML4-ALK] (Homo sapiens, UniProt Q9UM73).
T1 construct: IC50(nM) ALK (Ba/F3); other: 72 hours, CellTiter-Glo; BaF3 [EML4-ALK]; fused on or other part: Q9HC35 (Echinoderm microtubule-associated protein-like 4)
Description: Cytotoxicity test (CellTiter-Glo), BaF3 [EML4-ALK]. Conditions: 72 hours, CellTiter-Glo; read-out: IC50(nM) ALK (Ba/F3). It counts as cell-based. The procedure, abridged:
as §1

For data set [6], the system named is ALK[L1196M] (Ba/F3). Description: Cytotoxicity test (CellTiter-Glo), BaF3 EML4-ALK L1196M. The following applies: Ba/F3 cells. It counts as cell-based. The procedure, abridged:
as §1

The target in data set [7] is T2, ALK[L1196M] (Ba/F3) (Homo sapiens, UniProt Q9UM73, L1196M, cells depend on it).
T2 construct: IC50(nM) ALK[L1196M]; (Ba/F3); other: 72 hours, CellTiter-Glo; BaF3 [EMF4-AFK F1196M]; fused on or other part: Q9HC35 (Echinoderm microtubule-associated protein-like 4)
The description is as above. The following applies: 72 hours, CellTiter-Glo; read-out: IC50(nM) ALK[L1196M] (Ba/F3). It counts as cell-based. The gist of the method: as §1

A short description of data set [8]: Metabolic stability in human liver microsomes. It counts as in vitro ADME. The following applies: pH 7.4, 1 μM compound, 0.5 mg/mL protein.
The subject of data set [9] is BaF3 parental. Description: Cytotoxicity test (CellTiter-Glo), BaF3 parental. It counts as cell-based. The following applies: Mus musculus, 72 hours, read-out: IC50(nM) parental (Ba/F3). The gist of the method:
as §1

Data set [10] can be described thus: Metabolic stability in rat liver microsomes. It counts as in vitro ADME. Conditions: SD, pH 7.4, 1 μM compound, 0.5 mg/mL protein. A general note: Microsomes from liver hold many membrane-bound enzymes, among them those of drug oxidation.
Data set [11] concerns the target ALK [L1196M] (Homo sapiens, UniProt Q9UM73, L1196M). Description: Kinase inhibition assay, ALK [L1196M]. The class given is biochemical.

ALK G1202R, sequence (Q9UM73 19-1620 G1202R): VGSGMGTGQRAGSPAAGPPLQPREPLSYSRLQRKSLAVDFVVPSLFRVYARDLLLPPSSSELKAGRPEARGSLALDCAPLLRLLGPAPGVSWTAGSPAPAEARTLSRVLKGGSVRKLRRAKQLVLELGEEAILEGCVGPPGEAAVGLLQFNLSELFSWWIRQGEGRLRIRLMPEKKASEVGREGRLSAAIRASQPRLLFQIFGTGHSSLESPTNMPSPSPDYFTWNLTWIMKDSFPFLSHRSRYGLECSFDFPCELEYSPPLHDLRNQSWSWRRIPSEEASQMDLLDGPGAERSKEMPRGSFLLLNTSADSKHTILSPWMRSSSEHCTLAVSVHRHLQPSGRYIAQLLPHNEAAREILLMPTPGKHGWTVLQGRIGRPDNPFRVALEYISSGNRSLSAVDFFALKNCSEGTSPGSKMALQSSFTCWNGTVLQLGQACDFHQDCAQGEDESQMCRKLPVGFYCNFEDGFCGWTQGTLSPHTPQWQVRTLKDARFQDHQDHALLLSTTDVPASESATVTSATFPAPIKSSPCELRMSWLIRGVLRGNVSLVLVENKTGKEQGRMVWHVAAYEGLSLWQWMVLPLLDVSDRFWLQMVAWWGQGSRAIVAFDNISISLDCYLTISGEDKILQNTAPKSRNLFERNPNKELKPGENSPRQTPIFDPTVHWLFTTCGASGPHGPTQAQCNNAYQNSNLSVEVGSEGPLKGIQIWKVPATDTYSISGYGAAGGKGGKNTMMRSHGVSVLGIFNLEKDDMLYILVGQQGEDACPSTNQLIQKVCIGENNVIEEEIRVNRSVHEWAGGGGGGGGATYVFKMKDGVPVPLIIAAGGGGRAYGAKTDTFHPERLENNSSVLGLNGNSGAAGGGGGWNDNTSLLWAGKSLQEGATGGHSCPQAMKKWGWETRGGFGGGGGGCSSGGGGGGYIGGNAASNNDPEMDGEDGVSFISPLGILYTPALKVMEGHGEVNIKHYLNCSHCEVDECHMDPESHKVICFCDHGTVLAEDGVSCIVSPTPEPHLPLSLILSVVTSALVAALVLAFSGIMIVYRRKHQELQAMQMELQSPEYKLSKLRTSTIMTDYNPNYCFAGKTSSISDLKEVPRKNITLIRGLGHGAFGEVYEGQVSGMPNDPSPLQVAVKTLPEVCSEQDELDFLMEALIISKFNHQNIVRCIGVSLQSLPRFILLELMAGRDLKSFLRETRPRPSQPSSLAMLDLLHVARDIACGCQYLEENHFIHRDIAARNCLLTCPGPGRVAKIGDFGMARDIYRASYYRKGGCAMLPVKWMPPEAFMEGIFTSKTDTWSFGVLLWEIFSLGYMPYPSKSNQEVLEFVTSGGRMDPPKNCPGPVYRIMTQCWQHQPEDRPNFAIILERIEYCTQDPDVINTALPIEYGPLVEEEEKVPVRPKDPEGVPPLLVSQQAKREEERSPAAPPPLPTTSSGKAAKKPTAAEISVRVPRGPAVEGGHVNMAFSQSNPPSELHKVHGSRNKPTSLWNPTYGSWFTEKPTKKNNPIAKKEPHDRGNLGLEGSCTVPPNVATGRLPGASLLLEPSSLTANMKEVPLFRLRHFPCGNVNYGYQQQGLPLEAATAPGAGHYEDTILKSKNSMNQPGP
T1 sequence (Q9UM73 whole entry, change not shown, the tested form may be a part): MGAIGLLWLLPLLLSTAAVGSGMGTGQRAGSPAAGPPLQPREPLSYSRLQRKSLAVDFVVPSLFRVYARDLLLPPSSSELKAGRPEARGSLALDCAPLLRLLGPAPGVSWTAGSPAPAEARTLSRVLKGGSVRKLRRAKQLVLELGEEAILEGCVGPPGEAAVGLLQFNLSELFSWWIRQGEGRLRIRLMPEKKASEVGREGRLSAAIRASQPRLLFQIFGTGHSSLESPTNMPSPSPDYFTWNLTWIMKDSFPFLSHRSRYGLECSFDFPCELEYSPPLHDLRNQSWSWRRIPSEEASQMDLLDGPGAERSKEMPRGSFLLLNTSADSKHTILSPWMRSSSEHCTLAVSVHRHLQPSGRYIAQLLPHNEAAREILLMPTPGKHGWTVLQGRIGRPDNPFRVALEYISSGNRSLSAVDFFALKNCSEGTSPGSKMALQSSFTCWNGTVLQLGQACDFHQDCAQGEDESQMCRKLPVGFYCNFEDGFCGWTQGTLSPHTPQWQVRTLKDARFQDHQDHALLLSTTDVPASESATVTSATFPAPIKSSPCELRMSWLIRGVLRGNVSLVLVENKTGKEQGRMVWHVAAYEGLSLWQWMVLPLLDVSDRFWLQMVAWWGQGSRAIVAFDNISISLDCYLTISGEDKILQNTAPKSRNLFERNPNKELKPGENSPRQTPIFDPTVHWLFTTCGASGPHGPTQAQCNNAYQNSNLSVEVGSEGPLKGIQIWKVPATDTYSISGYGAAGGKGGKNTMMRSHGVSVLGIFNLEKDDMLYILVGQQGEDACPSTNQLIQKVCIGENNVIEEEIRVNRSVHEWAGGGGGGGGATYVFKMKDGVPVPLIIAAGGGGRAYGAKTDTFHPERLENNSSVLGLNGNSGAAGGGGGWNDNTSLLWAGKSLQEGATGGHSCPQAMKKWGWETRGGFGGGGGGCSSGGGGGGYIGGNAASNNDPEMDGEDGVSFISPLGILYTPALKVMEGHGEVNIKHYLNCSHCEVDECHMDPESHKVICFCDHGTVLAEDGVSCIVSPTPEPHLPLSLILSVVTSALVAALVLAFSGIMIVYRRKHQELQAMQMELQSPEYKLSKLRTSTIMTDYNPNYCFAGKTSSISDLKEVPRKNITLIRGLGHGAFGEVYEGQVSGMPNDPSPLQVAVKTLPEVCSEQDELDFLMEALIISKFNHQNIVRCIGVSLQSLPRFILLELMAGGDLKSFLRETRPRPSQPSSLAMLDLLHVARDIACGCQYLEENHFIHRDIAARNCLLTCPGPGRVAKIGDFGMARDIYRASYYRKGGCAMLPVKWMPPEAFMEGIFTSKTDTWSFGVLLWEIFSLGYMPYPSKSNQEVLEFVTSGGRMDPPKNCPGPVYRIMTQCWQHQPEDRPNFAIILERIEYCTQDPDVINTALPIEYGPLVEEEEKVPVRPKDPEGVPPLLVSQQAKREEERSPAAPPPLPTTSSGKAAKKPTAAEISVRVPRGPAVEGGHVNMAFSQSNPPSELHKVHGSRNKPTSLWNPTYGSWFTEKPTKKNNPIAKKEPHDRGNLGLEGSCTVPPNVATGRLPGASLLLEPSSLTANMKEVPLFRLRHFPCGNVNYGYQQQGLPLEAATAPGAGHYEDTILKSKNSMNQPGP
ALK [WT], sequence (Q9UM73 19-1620): as the sequence (Q9UM73 19-1620 G1202R) above, with R1184G counted along it
ALK [L1196M], sequence (Q9UM73 19-1620 L1196M): as the sequence (Q9UM73 19-1620 G1202R) above, with L1178M, R1184G counted along it
T2 sequence (Q9UM73 whole entry L1196M, the tested form may be a part): as the sequence (Q9UM73 whole entry, change not shown, the tested form may be a part) above, with L1196M counted along it

As for `Cc1cc(Nc2ncc(Cl)c(Nc3ccccc3S(=O)(=O)C(C)C)n2)c(OC(C)C)cc1C1CCNCC1` [Ceritinib], the “effect on F1174C/V” value in data set [1] is given as “no effect”. For the same compound, the “effect on G1202R” value in [2] is “neither of them has effect”.

With `COc1cc(C(C)(C)N)ccc1Nc1ncc(Cl)c(Nc2ccccc2P(C)(C)=O)n1` [Example 13, (2-((2-((4-(2-aminopropan-2-yl)-2-methoxyphenyl)amino)-5-chloropyrimidin-4-yl)amino)phenyl)dimethylphosphine oxide], the IC50 is not above 2 nM in data set [3], not below 1000 nM in data set [9] and not above 2 nM in data set [11]. The “Selectivity parental/ALK” value in data set [4] is less than 50. Besides, the GI50 in [5] is 25 to 50 nM; in data set [7], 100 to 200 nM. In [6], the “Selectivity parental/ALK[L1196M]” value is on record as less than 50. Besides, the microsomal CLint at 1 μM in [8] (read-out: CLint (uL/min/mg), Human liver microsome experiment) worked out at 11.7 µL/min/mg; in data set [10] (read-out: CLint (uL/min/mg), Rat liver microsome experiment) it was 9.1 µL/min/mg. The half-life at 1 μM in data set [8] (read-out: t1/2 (min), Human liver microsome experiment) was determined as 119 min; in data set [10] (read-out: t1/2 (min), Rat liver microsome experiment), 152 min.
